Eight compounds from ChEMBL document CHEMBL1159212, “Microbial metabolites of ophiobolin A and antimicrobial evaluation of ophiobolins” (1995) can be followed below.

The test system of one experiment is Candida albicans. The experiment in a line: Antifungal activity against Candida albicans by agar-well diffusion assay. To be noted: for MIC: Candida albicans. The format is functional. On the technique in general: A growth-free zone around the sample is the usual read-out of agar diffusion tests.
A further experiment deals with Cryptococcus neoformans. The experiment in a line: Antifungal activity against Cryptococcus neoformans by agar-well diffusion assay. The format is functional.
The test system of experiment [1] is Trichophyton mentagrophytes. Kind of experiment: Antifungal activity against Trichophyton mentagrophytes by agar-well diffusion assay. The format is functional. To be noted: for MIC: Trichophyton mentagrophytes.
For a further experiment, the system named is Escherichia coli. Kind of experiment: Antibacterial activity against Escherichia coli by agar-well diffusion assay. The format is functional, organism-based.
The test system of a further experiment is Staphylococcus aureus. The experiment in a line: Antibacterial activity against Staphylococcus aureus by agar-well diffusion assay. The format is functional.
Experiment [2] deals with Mycobacterium intracellulare. The experiment in a line: Antibacterial activity against Mycobacterium intercellulare by agar-well diffusion assay. The format is functional.
The subject of the next experiment is Aspergillus flavus. Kind of experiment: Antifungal activity against Aspergillus flavus by agar-well diffusion assay. The format is functional.
The next experiment concerns Candida. The experiment in a line: Antifungal activity against Torulopsis cremoris by agar-well diffusion assay. The format is functional.
Another experiment has as its system Yarrowia deformans. Kind of experiment: Antifungal activity against Torulopsis petrophilum by agar-well diffusion assay. The format is functional.

≈ marks a conversion by molar mass, not a printed value. Calls of active or inactive are those of the source. The calls are words filed in the database; no cut-off is given here. Bounds are passed on as bounds.

Broadly, the MIC is the lowest concentration found to suppress growth. The low end stands for a more susceptible organism, the high end for a less susceptible organism.

As for `CC(C)=C[C@H]1C[C@H](C)[C@]2(CC[C@]3(C)C[C@H]4[C@@H]5/C(=C\C[C@H]32)C(=O)OC5(O)C[C@@]4(C)O)O1` (stereo partly specified), the outcome (in the experiment with Candida albicans; in the experiment on Escherichia coli; in [2]) was inactive. Further, the “inhibition zone (IZ)” value is listed as “<=1 mm” with Cryptococcus neoformans, “<=7 mm” in [1] and greater than 12 mm with Staphylococcus aureus.
As to `C[C@@H]1[C@H](O)[C@@H](C)/C=C/C=C/C=C/C=C/C=C/C=C/C=C/[C@H](O[C@@H]2O[C@H](C)[C@@H](O)[C@H](N)[C@@H]2O)C[C@@H]2O[C@](O)(C[C@@H](O)C[C@@H](O)[C@H](O)CC[C@@H](O)C[C@@H](O)CC(=O)O[C@H]1C)C[C@H](O)[C@H]2C(=O)O` [AMPHOTERICIN B], the MIC was determined as 0.78 µg/mL (≈ 0.844 µM) in the experiment with Candida albicans; 0.78 µg/mL (≈ 0.844 µM) in [1]; 3.12 µg/mL (≈ 3.38 µM) against Aspergillus flavus; 3.12 µg/mL (≈ 3.38 µM) in the experiment on Candida; 0.2 µg/mL (≈ 0.216 µM) with Yarrowia deformans.
As to `CC(C)=C[C@H]1C[C@H](C)[C@]2(CC[C@]3(C)C[C@H]4[C@H]5/C(=C\C[C@H]32)C(=O)O[C@H]5C[C@@]4(C)O)O1` [OPHIOBOLIN A LACTONE], the outcome in the experiment with Candida albicans, with Escherichia coli and in the experiment with Staphylococcus aureus was inactive. The entries for the “inhibition zone (IZ)” value (in the experiment on Cryptococcus neoformans; in experiment [1]; in [2]) were 1 mm, 7 mm and 3 mm, respectively.
On to `CC(C)=C[C@H]1C[C@H](C)[C@]2(CC[C@]3(C)C[C@H]4[C@H](C(=O)C[C@@]4(C)O)/C(C=O)=C\C[C@H]32)O1` [OPHIOBOLIN A], for which the “inhibition zone (IZ)” value in the experiment on Candida albicans is 7 mm; in the experiment on Cryptococcus neoformans, 3 mm; in experiment [1], greater than 12 mm; in the experiment with Staphylococcus aureus, 7 mm; in experiment [2], 3 mm. Moreover, the MIC is 125 µg/mL (≈ 312 µM) against Candida albicans; 12.5 µg/mL (≈ 31.2 µM) in [1]; 25 µg/mL (≈ 62.4 µM) in the experiment with Aspergillus flavus; 0.2 µg/mL (≈ 0.499 µM) with Candida; 1.56 µg/mL (≈ 3.89 µM) against Yarrowia deformans. Also, the result in the experiment with Escherichia coli was inactive.
As for `CC(C)=CCC[C@H](C)[C@@]1(O)CC[C@]2(C)C[C@H]3[C@H]4/C(=C\C[C@H]21)C(=O)O[C@H]4C[C@@]3(C)O` [OPHIOBOLIN B LACTONE], the result (in the experiment with Candida albicans; with Escherichia coli; in the experiment on Staphylococcus aureus; in experiment [2]) was inactive. Further, the entries for the “inhibition zone (IZ)” value (in the experiment on Cryptococcus neoformans; in experiment [1]) were 1 mm and 7 mm, respectively.
On to `CC(C)=CCC[C@H](C)[C@@]1(O)CC[C@]2(C)C[C@H]3[C@H](C(=O)C[C@@]3(C)O)/C(C=O)=C\C[C@H]21` [OPHIOBOLIN B], for which the outcome (in the experiment on Candida albicans; with Escherichia coli; in [2]) was inactive. Besides, the “inhibition zone (IZ)” value with Cryptococcus neoformans is “<=1 mm”; in experiment [1], 7 mm; in the experiment with Staphylococcus aureus, 3 mm.
For `CC(C)=C[C@H]1C[C@H](C)[C@]2(CC[C@]3(C)C[C@@H]4C(C)=CC(=O)[C@H]4/C(CO)=C\C[C@H]32)O1` [OPHIOBOLIN I], the result in the experiment on Candida albicans, with Escherichia coli and in the experiment on Staphylococcus aureus was inactive. The “inhibition zone (IZ)” value worked out at 1 mm with Cryptococcus neoformans, 7 mm in experiment [1] and 3 mm in experiment [2].
Take `CC(C)=C[C@H]1C[C@H](C)[C@]2(CC[C@]3(C)C[C@H]4[C@H]5/C(=C\C[C@H]32)C(=O)OC5(O)C[C@@]4(C)O)O1` (stereo partly specified) [OPHIOBOLIN L]: the “inhibition zone (IZ)” value came to 1 mm in the experiment on Candida albicans, 3 mm with Cryptococcus neoformans and 3 mm in [2]. The “inhibition zone (IZ)” value in the experiment with Escherichia coli and in the experiment with Staphylococcus aureus was “inactive” each time.
